Reference: the supplement of paper PMC10307832

What was measured:
Assay in all cases: relative viability (nuclei count vs DMSO), 5 days (fraction); higher = more cells survive
Ruboxistaurin = compound: CN(C)C[C@@H]1CCn2cc(c3ccccc32)C2=C(C(=O)NC2=O)c2cn(c3ccccc23)CCO1 [Ruboxistaurin]
How it was run: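 Lung cancer cell lines in 1536-well plates were kept overnight at 37 °C, then pinned with five library-drug doses (not always all listed) spaced by √10 on vehicle-anchored plates. After 5 days without medium change, cells were fixed, permeabilised and Hoechst-stained in one step, imaged at 4×, and nuclei were counted with MetaXpress. Viability is treated-well nuclei divided by vehicle-well nuclei, taken as the median over plates. Plates passed only with control CV below 25% and at least one doubling.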

Ruboxistaurin + Olaparib = compound: CN(C)C[C@@H]1CCn2cc(c3ccccc32)C2=C(C(=O)NC2=O)c2cn(c3ccccc23)CCO1 [Ruboxistaurin] + O=C(c1cc(Cc2n[nH]c(=O)c3ccccc23)ccc1F)N1CCN(C(=O)C2CC2)CC1 [Olaparib] (partner 8 µM)
How it was run: (§1)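 After 5 days of treatment, lung cancer cells in 1536-well plates were fixed and stained in a single step (final 0.05% Triton X-100, 1% formaldehyde, 1 ug/ml Hoechst) and their nuclei counted on 4× images. Treatment had been applied by pin tool the day after seeding as one drug alone or as a fixed anchor-drug dose with five library-drug doses (not always all listed) in √10 steps. Relative viability is the nuclei count of treated wells divided by that of vehicle wells, and values are medians of duplicate plates.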

[1] = compound: CN(C)C[C@@H]1CCn2cc(c3ccccc32)C2=C(C(=O)NC2=O)c2cn(c3ccccc23)CCO1 [Ruboxistaurin] + C[C@@H](Oc1cc(-c2cnn(C3CCNCC3)c2)cnc1N)c1c(Cl)ccc(F)c1Cl [Crizotinib] (partner 1 µM)
How it was run: as §1

[2] = compound: CN(C)C[C@@H]1CCn2cc(c3ccccc32)C2=C(C(=O)NC2=O)c2cn(c3ccccc23)CCO1 [Ruboxistaurin] + Cc1nc(NC(=O)N2CCC[C@H]2C(N)=O)sc1-c1ccnc(C(C)(C)C(F)(F)F)c1 [Alpelisib] (partner 2 µM)
How it was run: as §1

[3] = compound: CN(C)C[C@@H]1CCn2cc(c3ccccc32)C2=C(C(=O)NC2=O)c2cn(c3ccccc23)CCO1 [Ruboxistaurin] + Cc1nc(Nc2ncc(C(=O)Nc3c(C)cccc3Cl)s2)cc(N2CCN(CCO)CC2)n1 [Dasatinib] (partner 0.075 µM)
How it was run: as §1

Row | Cell Line | relative viability (Ruboxistaurin; 0.08 µM) | relative viability (Ruboxistaurin; 0.8 µM) | relative viability (Ruboxistaurin; 2.53 µM) | relative viability (Ruboxistaurin; 8 µM) | relative viability (Ruboxistaurin + Olaparib; first compound 0.08 µM) | relative viability (Ruboxistaurin + Olaparib; first compound 0.8 µM) | relative viability (Ruboxistaurin + Olaparib; first compound 2.53 µM) | relative viability (Ruboxistaurin + Olaparib; first compound 8 µM) | relative viability ([1]; first compound 0.08 µM) | relative viability ([1]; first compound 0.8 µM) | relative viability ([1]; first compound 2.53 µM) | relative viability ([1]; first compound 8 µM) | relative viability ([2]; first compound 0.08 µM) | relative viability ([2]; first compound 0.8 µM) | relative viability ([2]; first compound 2.53 µM) | relative viability ([2]; first compound 8 µM) | relative viability ([3]; first compound 0.08 µM) | relative viability ([3]; first compound 0.8 µM) | relative viability ([3]; first compound 2.53 µM) | relative viability ([3]; first compound 8 µM)
1 | NCI-H2087 | 1.17 | 0.976 | 1.05 | 1.06 | 0.601 | 0.62 | 0.692 | 0.57 | 0.898 | 0.735 | 1.08 | 1.15 | 1.07 | 0.971 | 1.24 | 0.952 | 0.889 | 0.783 | 0.835 | 0.701
2 | NCI-H2126 | 1 | 0.898 | 1.04 | 0.934 | 0.888 | 0.887 | 0.915 | 0.936 | 1.03 | 0.92 | 1.07 | 1 | 0.729 | 0.713 | 0.76 | 0.697 | 0.697 | 0.557 | 0.611 | 0.539
3 | NCI-H2170 | 0.994 | 0.875 | 1.06 | 0.953 | 0.659 | 0.499 | 0.588 | 0.534 | 1.15 | 1.13 | 1.2 | 1.21 | 0.82 | 0.716 | 0.823 | 0.694 | 0.592 | 0.61 | 0.489 | 0.519
4 | NCI-H2228 | 0.94 | 0.89 | 1.01 | 0.93 | 0.643 | 0.564 | 0.889 | 0.696 | 0.453 | 0.427 | 0.316 | 0.3 | 0.85 | 0.675 | 0.837 | 0.478 | 0.615 | 0.493 | 0.49 | 0.456
5 | NCI-H2347 | 1.07 | 0.976 | 1.08 | 1.08 | 0.636 | 0.614 | 0.581 | 0.451 | 0.725 | 0.581 | 0.568 | 0.651 | 1.09 | 0.951 | 0.967 | 0.863 | 0.683 | 0.272 | 0.283 | 0.229
6 | NCI-H2405 | 1.17 | 0.97 | 1.01 | 1.01 | 0.918 | 0.774 | 0.878 | 0.874 | 0.901 | 0.823 | 0.838 | 0.874 | 0.936 | 0.681 | 0.775 | 0.835 | 0.184 | 0.239 | 0.174 | 0.222
7 | NCI-H3122 | 0.98 | 0.963 | 1.01 | 1.07 | 0.743 | 0.581 | 0.559 | 0.572 | 0.28 | 0.211 | 0.298 | 0.225 | 0.837 | 0.562 | 0.737 | 0.587 | 0.953 | 0.922 | 0.753 | 0.96
8 | PC-3 [JPC-3] | 1.12 | 0.97 | 1.11 | 1.09 | 1.24 | 1.09 | 1.08 | 1.17 | 1.03 | 0.958 | 1 | 1.02 | 1.02 | 0.956 | 1.01 | 0.976 | 1 | 0.97 | 0.967 | 0.944
9 | PC-14 | 1.17 | 0.924 | 1.01 | 0.989 | 0.246 | 0.302 | 0.364 | 0.256 | 0.932 | 0.821 | 0.958 | 0.929 | 1.03 | 0.887 | 0.881 | 1 | 0.269 | 0.221 | 0.281 | 0.0895
10 | RERF-LC-KJ | 1.04 | 0.903 | 0.995 | 0.959 | 0.938 | 0.804 | 0.942 | 0.709 | 0.811 | 0.766 | 0.812 | 0.926 | 0.854 | 0.798 | 0.761 | 0.744 | 0.847 | 0.608 | 0.833 | 0.652
11 | SK-LU-1 | 1.22 | 0.969 | 1.03 | 1.08 | 0.483 | 0.397 | 0.536 | 0.469 | 1.03 | 0.734 | 0.869 | 0.583 | 1.07 | 0.81 | 0.921 | 0.782 | 0.195 | 0.145 | 0.163 | 0.169
12 | SK-MES-1 | 1.07 | 0.91 | 1.02 | 0.898 | 0.726 | 0.555 | 0.905 | 0.465 | 1.06 | 1.03 | 0.979 | 0.972 | 1 | 0.782 | 0.837 | 0.801 | 0.395 | 0.308 | 0.329 | 0.339
13 | SW 1573 | 1.16 | 0.871 | 1.02 | 0.907 | 0.494 | 0.369 | 0.595 | 0.482 | 0.855 | 0.74 | 0.942 | 0.688 | 0.752 | 0.688 | 0.72 | 0.706 | 0.52 | 0.331 | 0.452 | 0.456
14 | UMC-11 | 0.964 | 0.914 | 0.974 | 0.762 | 0.554 | 0.364 | 0.361 | 0.289 | 0.537 | 0.554 | 0.64 | 0.465 | 0.966 | 0.896 | 0.95 | 0.743 | 0.481 | 0.455 | 0.429 | 0.434
